The first assay has as its system HCV pseudoparticles (genotype 1a HCV E1 and E2 envelope, H77C isolate). The experiment in a line: microbe, parasite or virus in culture. It is filed as cell-based. Particulars: Hepatitis C virus, Huh-7, 48 h, class symbol; HCV pseudoparticles genotype 1a (H77C), Huh7 cells, luciferase 2 days after infection, average of duplicates.
One may read the EC50 as the concentration giving half of the maximal effect. A high value points to weaker potency. Compound `CN(C)CC(C)(C)CNC(=O)c1ccc2cc1OCCCCOc1cccc(c1)CNc1nc(nc(OCC(F)(F)F)n1)N2` [Example 1802] returned a concentration giving a half-maximal response (EC50) of 0.1 to 100 nM.

`COC(=O)c1ccc2cc1OCCCCCCOc1cccc(c1)CNc1nc(nc(OCC(F)(F)F)n1)N2` [Example 1803] showed a 50% effective concentration (EC50) of 1000 to 50000 nM.

In the case of `CN(C)CC(C)(C)CNC(=O)c1ccc2cc1OCCCCCCOc1cccc(c1)CNc1nc(nc(OCC(F)(F)F)n1)N2` [Example 1804], the EC50 lay within 100 to 1000 nM.

Compound `CN(C)CC(C)(C)CNC(=O)c1ccc2cc1OCCCCCCOc1ccccc1CNc1nc(nc(OCC(F)(F)F)n1)N2` [Example 1806] showed a half-maximal effective concentration (EC50) of 100 to 1000 nM.

In the case of `CN(C)CC(C)(C)CNC(=O)c1ccc2cc1OCCCCCCOCC(c1ccccc1)Nc1nc(nc(OCC(F)(F)F)n1)N2` (stereo not shown) [Example 1807], the half-maximal effective concentration (EC50) fell in the range of 1000 to 50000 nM.

`FC(F)(F)COc1nc2nc(n1)Nc1cccc(c1)OCC=CCOc1ccc(cc1)CN2` [Example 2001] came in with a 50% effective concentration (EC50) of 0.1 to 100 nM.

Consider `FC(F)(F)COc1nc2nc(n1)Nc1cccc(c1)OCC=CCOc1cccc(c1)N2` [Example 2003], for which the EC50 is 0.1 to 100 nM.

`FC(F)(F)COc1nc2nc(n1)Nc1cccc(c1)OCCCCOc1cccc(c1)N2` [Example 2004] gave an EC50 of 0.1 to 100 nM.

On to `COC(=O)c1ccc2cc1OCC=CCOc1ccc(cc1)CNc1nc(nc(OCC(F)(F)F)n1)N2` [Example 2005], for which the EC50 was in the range of 0.1 to 100 nM.

Compound `O=C(NCC1(CN2CCCC2)CC1)c1ccc2cc1OCC=CCOc1ccc(cc1)CNc1nc(nc(OCC(F)(F)F)n1)N2` [Example 2006] displayed an EC50 of 0.1 to 100 nM.

`CN(C)CC(C)(C)CNC(=O)c1ccc2cc1OCC=CCOc1ccc(cc1)CNc1nc(nc(OCC(F)(F)F)n1)N2` [Example 2007]: the EC50 fell in the range of 100 to 1000 nM.

In the case of `FC(F)(F)COc1nc2nc(n1)NC1(CC1)c1ccc(cc1)OC/C=C/COc1cccc(c1)N2` [Example 2008], the half-maximal effective concentration (EC50) lay in the range of 0.1 to 100 nM.

For `FC(F)(F)COc1nc2nc(n1)NC1(CC1)c1ccc(cc1)OCCCCOc1cccc(c1)N2` [Example 2009], the EC50 was 0.1 to 100 nM.

`COC(=O)c1ccc2cc1OCCCN(C(=O)OC(C)(C)C)CCCOc1ccc(cc1)CNc1nc(nc(OCC(F)(F)F)n1)N2` [Example 3001]: the concentration giving a half-maximal response (EC50) lay in the range of 0.1 to 100 nM.

The compound `CC(C)(C)OC(=O)N1CCCOc2ccc(cc2)CNc2nc(nc(OCC(F)(F)F)n2)Nc2ccc(C(=O)O)c(c2)OCCC1` [Example 3002] had an EC50 of 0.1 to 100 nM.

`CC(C)(C)OC(=O)N1CCCOc2ccc(cc2)CNc2nc(nc(OCC(F)(F)F)n2)Nc2ccc(C(=O)NCC3(CN4CCCC4)CC3)c(c2)OCCC1` [Example 3003] showed an EC50 of 0.1 to 100 nM.

Consider `COC(=O)N1CCCOc2ccc(cc2)CNc2nc(nc(OCC(F)(F)F)n2)Nc2ccc(C(=O)NCC3(CN4CCCC4)CC3)c(c2)OCCC1` [Example 3004], for which the EC50 fell in the range of 0.1 to 100 nM.

`CCOC(=O)N1CCCOc2ccc(cc2)CNc2nc(nc(OCC(F)(F)F)n2)Nc2ccc(C(=O)NCC3(CN4CCCC4)CC3)c(c2)OCCC1` [Example 3005]: the EC50 lay within 0.1 to 100 nM.

`CC(C)OC(=O)N1CCCOc2ccc(cc2)CNc2nc(nc(OCC(F)(F)F)n2)Nc2ccc(C(=O)NCC3(CN4CCCC4)CC3)c(c2)OCCC1` [Example 3006] displayed an EC50 of 0.1 to 100 nM.

As to `CNC(=O)N1CCCOc2ccc(cc2)CNc2nc(nc(OCC(F)(F)F)n2)Nc2ccc(C(=O)NCC3(CN4CCCC4)CC3)c(c2)OCCC1` [Example 3007], the concentration for a half-maximal effect (EC50) fell in the range of 0.1 to 100 nM.

As to `CCNC(=O)N1CCCOc2ccc(cc2)CNc2nc(nc(OCC(F)(F)F)n2)Nc2ccc(C(=O)NCC3(CN4CCCC4)CC3)c(c2)OCCC1` [Example 3008], the EC50 was in the range of 0.1 to 100 nM.

In turn, `CC(C)NC(=O)N1CCCOc2ccc(cc2)CNc2nc(nc(OCC(F)(F)F)n2)Nc2ccc(C(=O)NCC3(CN4CCCC4)CC3)c(c2)OCCC1` [Example 3009] gave an EC50 of 0.1 to 100 nM.

For the compound `CN1CCCOc2ccc(cc2)CNc2nc(nc(OCC(F)(F)F)n2)Nc2ccc(C(=O)NCC3(CN4CCCC4)CC3)c(c2)OCCC1` [Example 3010], the concentration giving a half-maximal response (EC50) fell in the range of 0.1 to 100 nM.

`CCN1CCCOc2ccc(cc2)CNc2nc(nc(OCC(F)(F)F)n2)Nc2ccc(C(=O)NCC3(CN4CCCC4)CC3)c(c2)OCCC1` [Example 3011]: the EC50 fell in the range of 0.1 to 100 nM.

`CCCN1CCCOc2ccc(cc2)CNc2nc(nc(OCC(F)(F)F)n2)Nc2ccc(C(=O)NCC3(CN4CCCC4)CC3)c(c2)OCCC1` [Example 3012] came in with an EC50 of 0.1 to 100 nM.

As to `CC(C)CN1CCCOc2ccc(cc2)CNc2nc(nc(OCC(F)(F)F)n2)Nc2ccc(C(=O)NCC3(CN4CCCC4)CC3)c(c2)OCCC1` [Example 3013], the EC50 is 0.1 to 100 nM.

`CCCCN1CCCOc2ccc(cc2)CNc2nc(nc(OCC(F)(F)F)n2)Nc2ccc(C(=O)NCC3(CN4CCCC4)CC3)c(c2)OCCC1` [Example 3014] showed an EC50 of 0.1 to 100 nM.

`COC(=O)c1ccc2cc1OCCCCNCCCOc1ccc(cc1)CNc1nc(nc(OCC(F)(F)F)n1)N2` [Example 3015] showed an EC50 of 0.1 to 100 nM.

For `CC(C)(C)OC(=O)N1CCCCOc2cc(ccc2C(=O)NCC2(CN3CCCC3)CC2)Nc2nc(nc(OCC(F)(F)F)n2)NCc2ccc(cc2)OCCC1` [Example 3016], the EC50 is 0.1 to 100 nM.

`O=C(NCC1(CN2CCCC2)CC1)c1ccc2cc1OCCCCNCCCOc1ccc(cc1)CNc1nc(nc(OCC(F)(F)F)n1)N2` [Example 3017] registered a concentration giving a half-maximal response (EC50) of 0.1 to 100 nM.

For `CC(C)(C)NC(=O)N1CCCCOc2cc(ccc2C(=O)NCC2(CN3CCCC3)CC2)Nc2nc(nc(OCC(F)(F)F)n2)NCc2ccc(cc2)OCCC1` [Example 3018], the EC50 was in the range of 0.1 to 100 nM.

In turn, `COC(=O)N1CCCCOc2cc(ccc2C(=O)NCC2(CN3CCCC3)CC2)Nc2nc(nc(OCC(F)(F)F)n2)NCc2ccc(cc2)OCCC1` [Example 3019] gave an EC50 of 0.1 to 100 nM.

The compound `CCOC(=O)N1CCCCOc2cc(ccc2C(=O)NCC2(CN3CCCC3)CC2)Nc2nc(nc(OCC(F)(F)F)n2)NCc2ccc(cc2)OCCC1` [Example 3020] had a concentration for a half-maximal effect (EC50) of 0.1 to 100 nM.

Take `CC(C)OC(=O)N1CCCCOc2cc(ccc2C(=O)NCC2(CN3CCCC3)CC2)Nc2nc(nc(OCC(F)(F)F)n2)NCc2ccc(cc2)OCCC1` [Example 3021]: the EC50 lay in the range of 0.1 to 100 nM.

The compound `CC(=O)N1CCCCOc2cc(ccc2C(=O)NCC2(CN3CCCC3)CC2)Nc2nc(nc(OCC(F)(F)F)n2)NCc2ccc(cc2)OCCC1` [Example 3022] returned an EC50 of 0.1 to 100 nM.

Compound `CC(C)C(=O)N1CCCCOc2cc(ccc2C(=O)NCC2(CN3CCCC3)CC2)Nc2nc(nc(OCC(F)(F)F)n2)NCc2ccc(cc2)OCCC1` [Example 3023] displayed a half-maximal effective concentration (EC50) of 0.1 to 100 nM.

Compound `CC(C)(C)OC(=O)N1CCCOc2cccc(c2)CNc2nc(nc(OCC(F)(F)F)n2)Nc2ccc(C(=O)NCC3(CN4CCCC4)CC3)c(c2)OCCC1` [Example 3024] came in with an EC50 of 100 to 1000 nM.

Regarding `O=C(NCC1(CN2CCCC2)CC1)c1ccc2cc1OCCCNCCCOc1cccc(c1)CNc1nc(nc(OCC(F)(F)F)n1)N2` [Example 3025], the EC50 lay within 0.1 to 100 nM.

`O=C(NCC1(CN2CCCC2)CC1)c1ccc2cc1OCCCCCCNc1nc(nc(OCC(F)(F)F)n1)N2` [Example 4001] displayed an EC50 of 1000 to 50000 nM.

`O=C(NCC1(CN2CCCC2)CC1)c1ccc2cc1OCCCNCCCCCCCCNc1nc(nc(OCC(F)(F)F)n1)N2` [Example 5002] registered an EC50 of 0.1 to 100 nM.

The same assay, now with this note: Hepatitis C virus, Huh-7, 48 h, numeric value; HCV pseudoparticles genotype 1a (H77C), Huh7 cells, luciferase 2 days after infection, average of duplicates.
In the case of `CN(C)CC(C)(C)CNC(=O)c1ccc2cc1OCCCCCCOc1cccc(c1)CNc1nc(nc(OCC(F)(F)F)n1)N2` [Example 1804], the EC50 is 239 nM.

Compound `CN(C)CC(C)(C)CNC(=O)c1ccc2cc1OCC=CCOc1ccc(cc1)CNc1nc(nc(OCC(F)(F)F)n1)N2` [Example 2007] displayed an EC50 of 159 nM.

On to `FC(F)(F)COc1nc2nc(n1)NC1(CC1)c1ccc(cc1)OCCCCOc1cccc(c1)N2` [Example 2009], for which the concentration for a half-maximal effect (EC50) was found to be 18 nM.

As for `CCNC(=O)N1CCCOc2ccc(cc2)CNc2nc(nc(OCC(F)(F)F)n2)Nc2ccc(C(=O)NCC3(CN4CCCC4)CC3)c(c2)OCCC1` [Example 3008], the response was half-maximal at 5.36 nM (EC50).

On to `COC(=O)N1CCCCOc2cc(ccc2C(=O)NCC2(CN3CCCC3)CC2)Nc2nc(nc(OCC(F)(F)F)n2)NCc2ccc(cc2)OCCC1` [Example 3019], for which the concentration giving a half-maximal response (EC50) was 10.2 nM.

On to `O=C(NCC1(CN2CCCC2)CC1)c1ccc2cc1OCCCCCCNc1nc(nc(OCC(F)(F)F)n1)N2` [Example 4001], for which the concentration for a half-maximal effect (EC50) amounted to 42600 nM.

(Values after patent US8741884B2, “Compounds for the treatment of hepatitis C” (priority 2010, dated 2014).)
